From patent US9040528B2, “Chemical compounds 542” (AstraZeneca AB, priority 2008, dated 2015) come the findings set out here.

The structures appear in SMILES notation.

The first assay has as its target Escherichia coli DNA gyrase A/B tetramer (Escherichia coli (strain K12), UniProt P0AES4+P0AES6). Nature of the assay: DNA gyrase supercoiling activity fluorescence polarisation assay. In kind it is biochemical.
Conditions: not given
A digest of the protocol:
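Supercoiling reactions quenched with 40 nM 5′-BODIPY-FL triplex-forming oligonucleotide probe in pH 3.5 NaCl/sodium acetate buffer; after 60 min, fluorescence anisotropy read (ex 485/em 535 nm). IC50 by nonlinear regression, normalised to 0.8% DMSO (100% activity) and 5 μM ciprofloxacin (0% activity).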
In general terms: Polarisation of emitted light reports the rotation of a fluorescent probe.
One may read the IC50 as the concentration that gives 50% inhibition. `Cc1noc2c(F)c3c(cc12)CC1(C(=O)NC(=O)NC1=O)[C@H]1[C@H](C)C[C@H](C)CN31` (relative stereo) [Example 77, (2S,4R,4aR)-rel-11-fluoro-2,4,8-trimethyl-1,2,3,4,4a,6-hexahydro-1′H-spiro[isoxazolo[4,5-g]pyrido[1,2-a]quinoline-5,5′-pyrimidine]-2′,4′,6′(3′H)-trione] gave an IC50 of 300 nM.

The assay is the same for the next values; noted with them: 5 nM enzyme, relaxed plasmid, 0.3 mM ATP, ambient temperature; read-out: E. coli DNA gyrase supercoiling IC50.
`C[C@@H]1CN2c3c(cc4c(-n5cc(Cl)cn5)noc4c3F)CC3(C(=O)NC(=O)NC3=O)[C@H]2[C@H](C)O1` (relative stereo) [Example 61, (2R,4S,4aS)-rel-8-(4-chloro-1H-pyrazol-1-yl)-11-fluoro-2,4-dimethyl-1,2,4,4a-tetrahydro-2′H,6H-spiro[1,4-oxazino[4,3-a][1,2]oxazolo[4,5-g]quinoline-5,5′-pyrimidine]-2′,4′,6′(1′H,3′H)-trione]: the IC50 was determined as 9300 nM.

With `CSc1noc2c(F)c3c(cc12)CC1(C(=O)NC(=O)NC1=O)[C@H]1[C@H](C)O[C@H](C)CN31` (relative stereo) [Example 62, (2R,4S,4aS)-rel-11-fluoro-2,4-dimethyl-8-(methylsulfanyl)-1,2,4,4a-tetrahydro-2′H,6H-spiro[1,4-oxazino[4,3-a][1,2]oxazolo[4,5-g]quinoline-5,5′-pyrimidine]-2′,4′,6′(1′H,3′H)-trione], the IC50 worked out at 900 nM.

On to `Cc1cc(C)n(-c2noc3c(F)c4c(cc23)CC2(C(=O)NC(=O)NC2=O)[C@H]2[C@H](C)O[C@H](C)CN42)n1` (relative stereo) [Example 63, (2R,4S,4aS)-rel-8-(3,5-dimethyl-1H-pyrazol-1-yl)-11-fluoro-2,4-dimethyl-1,2,4,4a-tetrahydro-2′H,6H-spiro[1,4-oxazino[4,3-a][1,2]oxazolo[4,5-g]quinoline-5,5′-pyrimidine]-2′,4′,6′(1′H,3′H)-trione], for which the IC50 came to 2700 nM.

Turning to `C[C@@H]1CN2c3c(cc4c(-c5cn[nH]c5)noc4c3F)CC3(C(=O)NC(=O)NC3=O)[C@H]2[C@H](C)O1` (relative stereo) [Example 64, (2R,4S,4aS)-rel-11-fluoro-2,4-dimethyl-8-(1H-pyrazol-4-yl)-1,2,4,4a-tetrahydro-2′H,6H-spiro[1,4-oxazino[4,3-a][1,2]oxazolo[4,5-g]quinoline-5,5′-pyrimidine]-2′,4′,6′(1′H,3′H)-trione], the IC50 is 800 nM.

`Cc1nc(-c2noc3c(F)c4c(cc23)CC2(C(=O)NC(=O)NC2=O)[C@H]2[C@H](C)O[C@H](C)CN42)co1` (relative stereo) [Example 65, (2R,4S,4aS)-rel-11-fluoro-2,4-dimethyl-8-(2-methyl-1,3-oxazol-4-yl)-1,2,4,4a-tetrahydro-2′H,6H-spiro[1,4-oxazino[4,3-a][1,2]oxazolo[4,5-g]quinoline-5,5′-pyrimidine]-2′,4′,6′(1′H,3′H)-trione]: the IC50 was determined as 1100 nM.

As for `Cc1cc(-c2noc3c(F)c4c(cc23)CC2(C(=O)NC(=O)NC2=O)[C@H]2[C@H](C)O[C@H](C)CN42)no1` (relative stereo) [Example 66, (2R,4S,4aS)-rel-11-fluoro-2,4-dimethyl-8-(5-methyl-1,2-oxazol-3-yl)-1,2,4,4a-tetrahydro-2′H,6H-spiro[1,4-oxazino[4,3-a][1,2]oxazolo[4,5-g]quinoline-5,5′-pyrimidine]-2′,4′,6′(1′H,3′H)-trione], the concentration for half-maximal inhibition (IC50) was found to be 400 nM.

For the compound `Cc1noc(C)c1-c1noc2c(F)c3c(cc12)CC1(C(=O)NC(=O)NC1=O)[C@H]1[C@H](C)O[C@H](C)CN31` (relative stereo) [Example 67, (2R,4S,4aS)-rel-8-(3,5-dimethyl-1,2-oxazol-4-yl)-11-fluoro-2,4-dimethyl-1,2,4,4a-tetrahydro-2′H,6H-spiro[1,4-oxazino[4,3-a][1,2]oxazolo[4,5-g]quinoline-5,5′-pyrimidine]-2′,4′,6′(1′H,3′H)-trione], the IC50 came to 3200 nM.

On to `C[C@@H]1CN2c3c(cc4c(-c5nccn5C)noc4c3F)CC3(C(=O)NC(=O)NC3=O)[C@@H]2[C@H](C)O1` (relative stereo) [Example 68, (2R,4S,4aR)-rel-11-fluoro-2,4-dimethyl-8-(1-methyl-1H-imidazol-2-yl)-1,2,4,4a-tetrahydro-2′H,6H-spiro[1,4-oxazino[4,3-a][1,2]oxazolo[4,5-g]quinoline-5,5′-pyrimidine]-2′,4′,6′(1′H,3′H)-trione], for which the concentration for half-maximal inhibition (IC50) was 700 nM.

With `C[C@@H]1CN2c3c(cc4c(-c5cn(C)cn5)noc4c3F)CC3(C(=O)NC(=O)NC3=O)[C@H]2[C@H](C)O1` (relative stereo) [Example 69, (2R,4S,4aS)-rel-11-fluoro-2,4-dimethyl-8-(1-methyl-1H-imidazol-4-yl)-1,2,4,4a-tetrahydro-2′H,6H-spiro[1,4-oxazino[4,3-a][1,2]oxazolo[4,5-g]quinoline-5,5′-pyrimidine]-2′,4′,6′(1′H,3′H)-trione], the IC50 is 17000 nM.

Turning to `C[C@@H]1CN2c3c(cc4c(-c5cncn5C)noc4c3F)CC3(C(=O)NC(=O)NC3=O)[C@H]2[C@H](C)O1` (relative stereo) [Example 70, (2R,4S,4aS)-rel-11-fluoro-2,4-dimethyl-8-(1-methyl-1H-imidazol-5-yl)-1,2,4,4a-tetrahydro-2′H,6H-spiro[1,4-oxazino[4,3-a][1,2]oxazolo[4,5-g]quinoline-5,5′-pyrimidine]-2′,4′,6′(1′H,3′H)-trione], the IC50 came out at 500 nM.

Turning to `Cc1ncsc1-c1noc2c(F)c3c(cc12)CC1(C(=O)NC(=O)NC1=O)[C@@H]1[C@@H](C)O[C@@H](C)CN31` (relative stereo) [Example 71, (2R,4S,4aS)-rel-11-fluoro-2,4-dimethyl-8-(4-methyl-1,3-thiazol-5-yl)-1,2,4,4a-tetrahydro-2′H,6H-spiro[1,4-oxazino[4,3-a][1,2]oxazolo[4,5-g]quinoline-5,5′-pyrimidine]-2′,4′,6′(1′H,3′H)-trione], the IC50 amounted to 900 nM.

For `C[C@H]1CN2c3c(cc4c(-c5cccnn5)noc4c3F)CC3(C(=O)NC(=O)NC3=O)[C@@H]2[C@@H](C)O1` (relative stereo) [Example 73, (2R,4S,4aS)-rel-11-fluoro-2,4-dimethyl-8-(pyridazin-3-yl)-1,2,4,4a-tetrahydro-2′H,6H-spiro[1,4-oxazino[4,3-a][1,2]oxazolo[4,5-g]quinoline-5,5′-pyrimidine]-2′,4′,6′(1′H,3′H)-trione], the IC50 worked out at 500 nM.

In the case of `Cc1nsc2c(F)c3c(cc12)CC1(C(=O)NC(=O)NC1=O)[C@H]1[C@H](C)O[C@H](C)CN31` (relative stereo) [Example 75, (2R,4S,4aS)-rel-11-fluoro-2,4,8-trimethyl-1,2,4,4a-tetrahydro-2′H,6H-spiro[1,4-oxazino[4,3-a][1,2]thiazolo[4,5-g]quinoline-5,5′-pyrimidine]-2′,4′,6′(1′H,3′H)-trione], the IC50 amounted to 200 nM.

In the case of `C[C@@H]1CN2c3c(cc4c(-c5nccnc5Cl)noc4c3F)CC3(C(=O)NC(=O)NC3=O)[C@H]2[C@H](C)O1` (relative stereo) [Example 78, (2R,4S,4aS)-rel-8-(3-chloropyrazin-2-yl)-11-fluoro-2,4-dimethyl-2,4,4a,6-tetrahydro-1H,1′H-spiro[isoxazolo[4,5-g][1,4]oxazino[4,3-a]quinoline-5,5′-pyrimidine]-2′,4′,6′(3′H)-trione], the IC50 is 800 nM.

Turning to `C[C@@H]1CN2c3c(cc4c(-c5cncc(Cl)n5)noc4c3F)CC3(C(=O)NC(=O)NC3=O)[C@H]2[C@H](C)O1` (relative stereo) [Example 79, (2R,4S,4aS)-rel-8-(6-chloropyrazin-2-yl)-11-fluoro-2,4-dimethyl-2,4,4a,6-tetrahydro-1H,1′H-spiro[isoxazolo[4,5-g][1,4]oxazino[4,3-a]quinoline-5,5′-pyrimidine]-2′,4′,6′(3′H)-trione], the IC50 is 800 nM.

Regarding `CSc1cnc(-c2noc3c(F)c4c(cc23)CC2(C(=O)NC(=O)NC2=O)[C@H]2[C@H](C)O[C@H](C)CN42)cn1` (relative stereo) [Example 80, (2R,4S,4aS)-rel-11-fluoro-2,4-dimethyl-8-(5-(methylthio)pyrazin-2-yl)-2,4,4a,6-tetrahydro-1H,1′H-spiro[isoxazolo[4,5-g][1,4]oxazino[4,3-a]quinoline-5,5′-pyrimidine]-2′,4′,6′(3′H)-trione], the 50% inhibitory concentration (IC50) was determined as 1700 nM.

Take `C[C@@H]1CN2c3c(cc4c(Cn5cncn5)noc4c3F)CC3(C(=O)NC(=O)NC3=O)[C@H]2[C@H](C)O1` (relative stereo) [Example 81, (2R,4S,4aS)-rel-8-((1H-1,2,4-triazol-1-yl)methyl)-11-fluoro-2,4-dimethyl-2,4,4a,6-tetrahydro-1H,1′H-spiro[isoxazolo[4,5-g][1,4]oxazino[4,3-a]quinoline-5,5′-pyrimidine]-2′,4′,6′(3′H)-trione]: the IC50 turned out to be 3000 nM.

Regarding `C[C@@H]1CN2c3c(cc4c(-c5ccncc5)noc4c3F)CC3(C(=O)NC(=O)NC3=O)[C@H]2[C@H](C)O1` (relative stereo) [Example 82, (2R,4S,4aS)-rel-11-fluoro-2,4-dimethyl-8-(pyridin-4-yl)-2,4,4a,6-tetrahydro-1H,1′H-spiro[isoxazolo[4,5-g][1,4]oxazino[4,3-a]quinoline-5,5′-pyrimidine]-2′,4′,6′(3′H)-trione], the IC50 is 200 nM.

In the case of `C[C@@H]1CN2c3c(cc4c(-c5scnc5C(=O)N5CCOCC5)noc4c3F)CC3(C(=O)NC(=O)NC3=O)[C@H]2[C@H](C)O1` (relative stereo) [Example 85, (2R,4S,4aS)-rel-11-fluoro-2,4-dimethyl-8-[4-(morpholin-4-ylcarbonyl)-1,3-thiazol-5-yl]-1,2,4,4a-tetrahydro-2′H,6H-spiro[1,4-oxazino[4,3-a][1,2]oxazolo[4,5-g]quinoline-5,5′-pyrimidine]-2′,4′,6′(1′H,3′H)-trione], the IC50 turned out to be 17000 nM.
